# System: Pseudomonas aeruginosa ATCC 27853
# Assay: Minimal inhibitory concentration (MIC) by serial 1:2 dilutions
# Format: cell-based
# Conditions: MIC = greatest dilution at which 100% of a starting culture of 1 × 10^6 bacteria are killed
substance,measurement,value
Sodium Chlorite [0.5% Sodium Chlorite],MIC against Pseudomonas aeruginosa ATCC 27853,⅛

# Reference: patent US20210244029A1, “ANTIMICROBIAL COMPOSITIONS” (Aseptic Health, LLC, priority 2019, published 2021)
